Results from US8906852B2 (MethylGene Inc., priority 2010, dated 2014).
pIC50: −log10 of the molar value.

How the values were obtained:
VEGFR/KDR = target: T1, VEGFR/KDR (Homo sapiens, UniProt P35968); experiment: VEGFR/KDR kinase inhibition, DELFIA assay; format: biochemical; conditions: ATP 0.6 uM (2x Km), enzyme 5 nM
T1 construct: made in house; host or cells: Sf9 cells (Spodoptera frugiperda), baculovirus
How it was run: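 Enzyme (5 nM) pre-incubated 4 min on ice with inhibitor and Mg-ATP (0.6 uM, 2× Km), then reacted 10-30 min at 30° C on immobilized poly(Glu4,Tyr). EDTA-quenched phosphotyrosine detected with Europium-labeled antibody by time-resolved fluorescence; IC50 from concentration series.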

CNV progression = experiment: In vivo choroidal neovascularization (CNV) model, laser-induced, intravitreal injection; design: species or system Male Brown-Norway rats; conditions: rat; for inhibition in vivo at 10 nmol/eye / inhibition in vivo at 3 nmol/eye: 240 h; for inhibition in vivo at 3 nmol/eye: 3 nmol/eye injected on Day 3, CNV area on Day 10, vs vehicle
Description: This test measures the capacity of compounds to inhibit CNV progression. CNV is the main cause of severe vision loss in patients suffering from age-related macular degeneration (AMD).
Male Brown-Norway rats (Japan Clea Co., Ltd.) were used in these studies.
Rats were anesthetized by intraperitoneal injection of pentobarbital, and the right pupil was dilated with 0.5% tropicamide and 0.5% phenylephrine hydrochloride. The right eye received 6 laser burns between retinal vessels using a slit lamp delivery system of Green laser Photocoagulator (Nidex Inc., Japan), and microscope slide glass with Healon™ (AMO Inc) used as a contact lens. The laser power was 100 or 200 mW for 0.1 second and spot diameter was 100 μm. At the time of laser burn, bubble production was observed, which is an indication of rupture of Bruch's membrane which is important for CNV generation.
Rats were divided into the groups based on their body weight using SAS software (SAS institute Japan, R8.1) after laser irradiation (Day 0). After animals were anesthetized, and the right pupil dilated (as above mentioned), the right eye of the animal received the compound or vehicle by an injection (10 μL/eye) at doses of 10 or 3 nmol/eye on Day 3. The compounds were dissolved or suspended in CBS, PBS, or other adequate vehicles before injection.
On Day 10, the animals were anesthetized with ether, and high molecular weight fluorescein isothiocyanate (FITC)-dextran (SIGMA, 2×10^6 MW) was injected via a tail vein (20 mg/rat). About 30 min after FITC-dextran injection, animals were euthanized by ether or carbon dioxide, and the eyes were removed and fixed with 10% formaline neutral buffer solution. After over 1 hour of fixation, RPE-choroid-sclera flat mounts were obtained by removing cornea, lens and retina from the eyeballs. The flat mounts were mounted in 50% glycerol on a microscope slide, and the portion burned by laser was photographed using a fluorescence microscope (Nikon Corporation, excitation filter:465-495 nm, absorption filter:515-555 nm). The CNV area was obtained by measurement of hyper-fluorescence area observed on the photograph using Scion image.
The average CNV area of 6 burns was used as an individual value of CNV area, and the average CNV area of compound treated group was compared with that of the vehicle-treated group.

[1] = 10 nmol/eye injected on Day 3, CNV area on Day 10, vs vehicle

T1 sequence (P35968 806-1356): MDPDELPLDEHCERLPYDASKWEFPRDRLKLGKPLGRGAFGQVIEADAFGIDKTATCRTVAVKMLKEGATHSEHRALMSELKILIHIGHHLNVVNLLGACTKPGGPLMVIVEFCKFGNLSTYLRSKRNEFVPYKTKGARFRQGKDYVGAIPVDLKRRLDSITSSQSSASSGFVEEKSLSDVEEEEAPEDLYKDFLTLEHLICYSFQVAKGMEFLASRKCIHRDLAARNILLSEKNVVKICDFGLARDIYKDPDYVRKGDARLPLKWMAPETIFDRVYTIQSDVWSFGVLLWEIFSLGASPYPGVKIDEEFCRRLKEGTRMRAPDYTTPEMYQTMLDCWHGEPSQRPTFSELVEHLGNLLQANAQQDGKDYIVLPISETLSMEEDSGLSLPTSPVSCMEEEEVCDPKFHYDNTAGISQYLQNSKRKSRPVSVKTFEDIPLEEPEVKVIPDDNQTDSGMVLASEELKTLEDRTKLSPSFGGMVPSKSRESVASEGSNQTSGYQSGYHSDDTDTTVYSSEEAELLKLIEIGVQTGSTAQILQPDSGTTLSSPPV

pIC50 (VEGFR/KDR)	Compound	inhibition in vivo at 10 nmol/eye (CNV progression; [1]) [%]	inhibition in vivo at 3 nmol/eye (CNV progression) [%]	Inhibition of CNV progression (CNV progression; [1])
> 7.30	O=C(Nc1ccc(Oc2ccnc3cc(-c4ccc(CN5CCNCC5)cn4)sc23)c(F)c1)NC1CC1 [Compound 49, 1-cyclopropyl-3-(3-fluoro-4-(2-(5-(piperazin-1-ylmethyl)pyridin-2-yl)thieno[3,2-b]-pyridin-7-yloxy)phenyl)urea]	≥ 60		
> 7.30	COCCNCCc1ccc(-c2cc3nccc(Oc4ccc(NC(=O)NC5CC5)cc4F)c3s2)nc1 [Compound 288, 1-cyclopropyl-3-(3-fluoro-4-(2-(5-(2-(2-methoxyethylamino)ethyl)pyridin-2-yl)thieno[3,2-b]pyridin-7-yloxy)phenyl)urea]	40 to 60		
> 7.30	O=C(Nc1ccc(Oc2ccnc3cc(-c4ccc(CNCCO)cn4)sc23)c(F)c1)NC1CC1 [Compound 9, 1-cyclopropyl-3-(3-fluoro-4-(2-(5-((2-hydroxyethylamino)methyl)pyridin-2-yl)-thieno[3,2-b]pyridin-7-yloxy)phenyl)urea]	≥ 60		
> 7.30	COCCOCCOCCOCCN(Cc1ccc(-c2cc3nccc(Oc4ccc(NC(=O)NC5CC5)cc4F)c3s2)nc1)C(=O)CO [Compound 45]	40 to 60		
> 7.30	CN1CCN(CCn2cc(-c3cc4nccc(Oc5ccc(NC(=O)NC6CC6)cc5F)c4s3)cn2)CC1 [Compound 154, 1-cyclopropyl-3-(3-fluoro-4-(2-(1-(2-(4-methylpiperazin-1-yl)ethyl)-1H-pyrazol-4-yl)thieno[3,2-b]pyridin-7-yloxy)phenyl)urea]		40 to 60	
> 7.30	CC(C)N(CCN1CCN(C(=O)c2ccc(-c3cc4nccc(Oc5ccc(NC(=O)NC6CC6)cc5F)c4s3)nc2)CC1)C(C)C [Compound 230, 1-cyclopropyl-3-(4-(2-(5-(4-(2-(diisopropylamino)ethyl)piperazine-1-carbonyl)pyridin-2-yl)thieno[3,2-b]pyridin-7-yloxy)-3-fluorophenyl)urea]		40 to 60	
> 7.30	CCNC(=O)N(CCOCCOCCOCCOC)Cc1ccc(-c2cc3nccc(Oc4ccc(NC(=O)NC5CC5)cc4F)c3s2)nc1 [Compound 36, N-[3-((6-(7-(4-(3-cyclopropylureido)-2-fluorophenoxy)-thieno[3,2-b]-pyridin-2-yl)pyridin-3-yl)methyl)]-N-(1-ethyl)-N-[3-(2,5,8,11-tetraoxatridecan-13-yl)]urea]	40 to 60		
> 7.30	COCCN(CCc1ccc(-c2cc3nccc(Oc4ccc(NC(=O)NC5CC5)cc4F)c3s2)nc1)C(C)=O [Compound 41, N-(2-(6-(7-(4-(3-cyclopropylureido)-2-fluorophcnoxy)-thieno[3,2-b]-pyridin-2-yl)pyridin-3-yl)ethyl)-N-(2-methoxyethyl)-acetamide]	40 to 60		
> 7.30	CN(C)C(=O)CCN1CCN(Cc2ccc(-c3cc4nccc(Oc5ccc(NC(=O)NC6CC6)cc5F)c4s3)nc2)CC1 [Compound 83, 3-(4-((6-(7-(4-(3-cyclopropylureido)-2-luorophenoxy)thieno-[3,2-b]pyridin-2-yl)pyridin-3-yl)melhyl)piperazin-l-yl)-N,N-dimethyl-propanamide]	40 to 60		
> 7.30	COCCN(C=N)Cc1ccc(-c2cc3nccc(Oc4ccc(NC(=O)NC5CC5)cc4F)c3s2)nc1 [Compound 7, N-((6-(7-(4-(3-cyclopropylureido)-2-fluorophenoxy)thieno[3,2-b]pyridin-2-yl)pyridin-3-yl)methyl)-N-(2-methoxyethyl)formimidamide]	≥ 60		
> 7.30	O=C(Nc1ccc(Oc2ccnc3cc(-c4ccc(CN5CCCS5(=O)=O)cn4)sc23)c(F)c1)NC1CC1 [Compound 142, 1-cyclopropyl-3-(3-fluoro-4-(2-(5-(2,2-dioxo-2-thiapyrrolidin-1-ylmethyl)pyridin-2-yl)thieno[3,2-b]pyridin-7-yloxy)phenyl)urea]	40 to 60		
> 7.30	COCCN(Cc1ccc(-c2cc3nccc(Oc4ccc(NC(=O)NC5CC5)cc4F)c3s2)nc1)C(=O)CS(C)(=O)=O [Compound 90, N-((6-(7-(4-(3-cyclopropylureido)-2-fluorophenoxy)thieno[3,2-b]pyridin-2-yl)pyridin-3-yl)methyl)-N-(2-methoxyethyl)-2-(methylsulfonyl)acetamide]	≥ 60		
> 7.30	Cn1c(CN2CCCC2=O)cnc1-c1cc2nccc(Oc3ccc(NC(=O)NC4CC4)cc3F)c2s1 [Compound 137, 1-cyclopropyl-3-(3-fluoro-4-(2-(1-methyl-5-((2-oxopyrrolidin-1-yl)methyl)-1H-imidazol-2-yl)thieno[3,2-b]pyridin-7-yloxy)phenyl)urea]	40 to 60		
> 7.30	COCCNCc1ccc(-c2cc3nccc(Oc4ccc(NC(=O)NC5CC5)c(F)c4F)c3s2)nc1 [Compound 25, 1-cyclopropyl-3-(2,3-difluoro-4-(2-(5-((2-methoxyethylamino)methyl)pyridin-2-yl)thieno[3,2-b]pyridin-7-yloxy)phenyl)urea]	≥ 60		
> 7.30	COCCN(Cc1ccc(-c2cc3nccc(Oc4ccc(NC(=O)NC5CC5)cc4F)c3s2)nc1)C(N)=O [Compound 5, N-[3-((6-(7-(4-(3-cyclopropylureido)-2-fluorophenoxy)thieno[3,2-b]pyridin-2-yl)pyridin-3-yl)methyl)]-N-[3-(2-methoxyethyl)]urea]	40 to 60		
> 7.30	CN1CCN(Cc2ccc(-c3cc4nccc(Oc5ccc(NC(=O)NC6CC6)cc5F)c4s3)nc2)CC1 [Compound 51, 1-cyclopropyl-3-(3-fluoro-4-(2-(5-((4-methylpiperazin-1-yl)methyl)pyridin-2-yl)thieno[3,2-b]-pyridin-7-yloxy)phenyl)urea]	≥ 60		

Compound	pIC50 (VEGFR/KDR)	inhibition in vivo at 10 nmol/eye (CNV progression; [1]) [%]	inhibition in vivo at 3 nmol/eye (CNV progression) [%]	Inhibition of CNV progression (CNV progression; [1])
CNC(=O)N(CCOC)Cc1ccc(-c2cc3nccc(Oc4ccc(NC(=O)NC5CC5)cc4F)c3s2)nc1 [Compound 3, N-[3-((6-(7-(4-(3-cyclopropylureido)-2-fluorophenoxy)thieno[3,2-b]pyridin-2-yl)pyridin-3-yl)methyl)]-N-(1-methyl)-N-[3-(2-methoxyethyl)]urea]	> 7.30			A (greater than or equal to 60% inhibition)
